Results taken from patent publication US20150119360A1, “COMPOSITION FOR PROMOTING BIFIDOBACTERIA GROWTH” (Kyoto University, priority 2012, published 2015).

What was measured:
Test in all cases: Growth-promoting (prebiotic) effect, OD600 after 24 hr anaerobic culture in GAM bouillon
Assay type in all cases: cell-based
[1] = test system: Bifidobacterium longum subsp. Longum 1217 strain; conditions: B. longum subsp. Longum 1217, 0.5 (w/v) % oligosaccharide, 37° C.
Procedure: (§1) The microorganisms were purchased from independent administrative agency RIKEN Tsukuba Laboratory BioResource Center (3-1-1 Koyadai, Tsukuba, Ibaraki 305-0074, Japan). As Bifidobacterium longum subsp. longum NCC2705, the strain preserved under GenBank accession number NC004307 was used.
(§2) Glycerol stock of each strain shown in Table 1 was plated in GAM bouillon (manufactured by Nissui Pharmaceutical Co., Ltd.) agar medium, and cultured using a gas pack (“Anaeropack”, manufactured by Mitsubishi Gas Chemical Company, Inc.), under anaerobic conditions at 37° C. for 2 days to renature the test strain. Each strain was inoculated in 5 mL GAM bouillon liquid medium, and precultured in the same manner as above under an anaerobic condition at 37° C. for 18 hr.
(§3) The turbidity (OD600) of each culture medium was measured at wavelength 600 nm on completion of the preculture. The preculture medium was seeded in 1 mL of main test liquid medium such that the OD600 value at the time of start of the culture was 0.010, the cells were cultured under anaerobic conditions at 37° C. for 24 hr in the same manner as above, and OD600 of the culture medium was measured on completion of the culture. The liquid medium for the test was prepared by adding LNT or LNnT to the GAM bouillon liquid medium at a final concentration of 0.5 (w/v) %. In addition, GAM bouillon liquid medium free of both oligosaccharides LNT, LNnT was used as a control. To evaluate the growth-promoting effect (prebiotic effect) of LNT and LNnT, the relative value of the oligosaccharide (LNT or LNnT) addition plot, when the measurement value OD600 of the oligosaccharide non-addition plot (control) was 1, is shown in FIG. 2.

[2] = test system: Bifidobacterium longum subsp. Longum NCC2705 strain; conditions: B. longum subsp. Longum NCC2705, 0.5 (w/v) % oligosaccharide, 37° C.
Procedure: as §1, §2, §3

[3] = test system: Bifidobacterium longum subsp. Longum 7054 strain; conditions: B. longum subsp. Longum 7054, 0.5 (w/v) % oligosaccharide, 37° C.
Procedure: as §1, §2, §3

Measured: prebiotic effect (OD600 of oligosaccharide addition test plot/OD600 of control plot)

4-O-[3-[2-(acetylamino)-2-deoxy-3-O-(β-D-galactopyranosyl)-β-D-glucopyranosyl]-β-D-galactopyranosyl]-D-glucose [LNT]
≥ 2 fold: [1] | [2] | [3]
